pIC50: −log10 of the molar value. Where a name gives a salt, the structure may show the parent alone.
Experiments:
[1] = Calcein AM cytotoxicity assay, K562; assay type: cell-based; conditions: human, K562 cells (chronic myelogenous leukaemia), K562, 3-day Calcein-AM assay; read-out: Cytotoxic activity IC50
Source text: (§1) Because toxic compounds negatively influence metabolic processes of cells, many standard cytotoxicity assays are based on measurement of metabolisation rate of various artificial substrates. Resulting product is then quantified, for example, by means of spectrometry. The assays can be easily modified for use in 96-well plates. For evaluation of cytotoxicity of the […] of this invention, a microtiter assay based on quantification of metabolisation of Calcein AM was used. The assay is widely used in drug screening programs and in chemosensitivity testing. In live cells, Calcein AM is enzymatically hydrolysed and accumulation of the resulting calcein is manifested by green fluorescence. […]
(§2) Approximately 10,000 cells in 80 μL of medium were seeded into 96-well microtitre plates. […] The fluorescence of free calcein was then quantified using a Fluoroscan Ascent fluorometer (Microsystems), and the percentage of surviving cells in each well was calculated by dividing the OD obtained from each cell with exposed cells by the mean OD obtained from control wells×100%. […]

[2] = Calcein AM cytotoxicity assay, HELA; assay type: cell-based; conditions: human, HeLa cells (cervical carcinoma), 3-day Calcein-AM assay, read-out: Cytotoxic activity IC50
Source text: as §1, §2

[3] = Calcein AM cytotoxicity assay, RPMI 8226; assay type: cell-based; conditions: human, RPMI 8226 cells (multiple myeloma); RPMI 8226, 3-day Calcein-AM assay; read-out: Cytotoxic activity IC50
Source text: as §1, §2

[4] = Pharmacokinetics / bioavailability upon intraduodenal administration in rats; assay type: in vivo, male Sprague-Dawley rats; conditions: rat
Experimental: Preparation of Dosing Solutions for In-Vivo Study: Para-topolin and para-topolin mesylate salt were stored at room temperature under desiccant and protected from light. The dosing solutions were prepared fresh from powders on the day of dosing. The dosing solution for intravenous administration (IV) was prepared at 1 mg/mL (free acid) in 50:50 DMSO: saline. The dosing solution for intraduodenal administration (ID) was prepared at 2 mg/mL in a 0.2% sodium carboxymethyl cellulose (Na CMC) aqueous solution.
Administration to Animals: The pharmacokinetics of para-topolin base and mesylate was evaluated in fasted male Sprague-Dawley rats. […]
Each blood sample was collected from the rats via a jugular vein cannula and placed into chilled polypropylene tubes containing sodium heparin as an anticoagulant. […] The total concentration of para-topolin in plasma samples were analyzed by LC-MS/MS after an overnight incubation with glucuronidase/arylsulfatase enzyme mixture. Pharmacokinetic parameters were calculated using the WinNonlin software.
Analysis of Plasma Samples: An LC-MS/MS analytical method for the determination of […] in rat plasma was developed (Novák et al., Phytochemistry, 69, 2008:2214-2224). Prior to sample analysis, a standard curve was analyzed to determine the specificity, range, and linearity of the method. […]

[5] = Calcein AM cytotoxicity assay, HOS; assay type: cell-based, human; conditions: human, HOS cells (osteosarcoma), 3-day Calcein-AM assay, read-out: Cytotoxic activity IC50
Source text: as §1, §2

[6] = test system: K562 (chronic myelogenous leukaemia); assay: Calcein AM cytotoxicity assay, K562; assay type: cell-based; conditions: K562, 3-day Calcein-AM assay; read-out: Cytotoxic activity IC50
Source text: as §1, §2

[7] = test system: HeLa (cervical carcinoma); assay: Calcein AM cytotoxicity assay, HELA; assay type: cell-based; conditions: 3-day Calcein-AM assay, read-out: Cytotoxic activity IC50
Source text: as §1, §2

[8] = test system: RPMI 8226 (multiple myeloma); assay: Calcein AM cytotoxicity assay, RPMI 8226; assay type: cell-based; conditions: RPMI 8226, 3-day Calcein-AM assay; read-out: Cytotoxic activity IC50
Source text: as §1, §2

[9] = water; reported value; cited from earlier work

Row | SMILES | IC50 at 72 h [1] [µM] | IC50 at 72 h [2] [µM] | IC50 at 72 h [3] [µM] | time after ID dosing at which Cmax was observed [4] [min] | IC50 at 72 h [5] [µM] | pIC50 [6] | pIC50 [7] | pIC50 [8] | aqueous solubility (reported) [9] [mg/mL]
1 | Oc1ccc(CNc2ncnc3nc[nH]c23)cc1 [para-topolin mesylate, 6-(4-hydroxybenzylamino) purine (para-topolin) mesylate (methylsulphonate)] | > 167 | > 167 | > 167 | ≤ 15 | > 167 |  |  |  | 
2 | Oc1ccc(CNc2ncnc3nc[nH]c23)cc1 [para-topolin, 6-(4-Hydroxybenzylamino) purine] |  |  |  |  |  | 3.85 | < 3.78 | < 3.78 | < 0.04
